Test results reported in publication PMC8151276, “An Integrated Approach toward NanoBRET Tracers for Analysis of GPCR Ligand Engagement” (Molecules, 2021).

Tests used:
Format in all cases: binding
[1] = molecular target: T1, LTB4R (Homo sapiens, UniProt Q15722); assay: NanoBRET screen HiBiT-LTB4R in HEK293
T1 construct: purchased Promega (in-house HiBiT-GPCR construct library, NanoBRET)
Protocol: (§1) Each tracer candidate was screened across the entire library of HiBiT-GPCR constructs using NanoBRET as the detection modality. As depicted in Figure 4A, the specificity of interactions was evaluated through decrease in BRET due to competitive displacement of a bound tracer by excess parental compound. Each tracer was analyzed for binding to each HiBiT-GPCR fusion in the absence and in the presence of competing parental compound. Briefly, HEK293 cells were transfected with HiBiT-GPCR constructs diluted into promoterless DNA to reduce expression and maximize translocation to the cell surface. Each tracer candidate was then screened at concentrations of 1 μM and 0.1 μM across cells expressing these fusions. Cells were treated for 1.5 h with tracer either alone or in the presence of 20 μM competing parental compound (i.e., control). BRET was measured upon addition of purified LgBiT and subsequent complementation with HiBiT genetically fused to a GPCR. The specificity of interactions was assessed through a decrease in BRET signal due to competitive displacement of the bound tracer. To further gauge the robustness of these interactions, the fold response over the control (i.e., BRETtracer/BRETcontrol) was calculated. We chose a 1.5-fold response, which translates to ≥7-fold signal over noise as the minimal threshold required to score an interaction as positive. […]. Below we highlight the screening results obtained for our exemplary fluorescent tracers based on Clozapine, Amitriptyline and AZD1283.
(§2) HiBiT-GPCR DNA constructs were diluted in 10 mM Tris pH 8 to a final concentration of 0.01 μg/μL, arrayed in 96-well plates and stored at −20 °C. For transfection, HEK293 cells were suspended in Opti-MEM (without phenol red) supplemented with 2% fetal bovine serum (Seradigm) and 100 units/mL penicillin–streptomycin (Gibco) at a final concentration of 220,000 cells/mL and dispensed into white 96-well plates at 90 μL/well. Subsequent transfections and screens were carried using an Agilent Bravo Automated Liquid Handling Platform. First, the 96-well HiBiT DNA arrays were diluted 25-fold in Opti-MEM (without serum or phenol red) to a final concentration of 0.0004 μg/μL and 20 μL of the diluted DNAs were transferred into new 96-well plates. Next, promoterless carrier DNA (1 μg/μL) was diluted 25-fold (0.04 μg/μL) and then dispensed into the diluted arrays at 20 μL/well. Following brief mixing, Viafect transfection reagent (Promega) diluted 16-fold into Opti-MEM was dispensed into the plates at 40 μL/well. After mixing by pipetting, plates were incubated for 10 min on the pipetting station deck. The DNA-transfection reagent complexes were then added to plates containing cells. To facilitate the screen, 10 μL of DNA-transfection reagent complexes were added in duplicates to the top 4 and bottom 4 rows, resulting in two identical 48-well arrays per plate. Plates with transfected cells were incubated for 18–20 h at 37 °C/5% CO2. A screen of each tracer across the entire library using two different concentrations requires duplicate plates of transfected cells. Depending on the number of tracers being screened, transfections can be scaled up using the same ratios. The next day, for each tracer, four 20× screening solutions in tracer dilution buffer (Promega) were prepared: two duplicates at final concentration of 20 μM and two duplicates at a final concentration of 2 μM. A competing unmodified compound was added to one of each duplicate at a final concentration of 400 μM. The four resulting solutions were diluted 4-fold in Opti-MEM without serum or phenol red to generate 5× solutions (5 µM and 0.5 µM tracer +/− 100 μM competing compound). To screen the library, a BioTek MultiFlo FX liquid dispenser was used to dispense 22.5 µL of tracer solution to the top 4 rows and 22.5 µL tracer + competing compound solution to the 4 bottom rows. Plates were briefly mixed on an orbital shaker and incubated for 1.5 h at room temperature. […]

[2] = molecular target: T2, NTSR1 (Homo sapiens, UniProt P30989); assay: NanoBRET screen HiBiT-NTSR1 in HEK293
T2 construct: purchased Promega (in-house HiBiT-GPCR construct library, NanoBRET)
Protocol: as §1, §2

[3] = molecular target: T3, OPRL1 (Homo sapiens, UniProt P41146); assay: NanoBRET screen HiBiT-OPRL1 in HEK293
T3 construct: purchased Promega (in-house HiBiT-GPCR construct library, NanoBRET)
Protocol: as §1, §2

T2 sequence (P30989 whole entry): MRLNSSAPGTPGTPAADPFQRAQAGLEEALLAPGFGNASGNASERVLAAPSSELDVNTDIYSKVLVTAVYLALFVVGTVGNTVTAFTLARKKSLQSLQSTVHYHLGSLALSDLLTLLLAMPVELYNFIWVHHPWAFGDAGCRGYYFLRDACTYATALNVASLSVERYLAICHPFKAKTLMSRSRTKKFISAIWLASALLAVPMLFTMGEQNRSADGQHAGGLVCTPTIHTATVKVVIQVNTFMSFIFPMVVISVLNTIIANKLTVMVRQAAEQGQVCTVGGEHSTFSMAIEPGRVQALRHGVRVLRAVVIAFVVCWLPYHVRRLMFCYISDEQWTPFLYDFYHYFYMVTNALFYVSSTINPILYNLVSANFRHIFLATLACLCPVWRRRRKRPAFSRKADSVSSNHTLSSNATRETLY
T1 sequence (Q15722 whole entry): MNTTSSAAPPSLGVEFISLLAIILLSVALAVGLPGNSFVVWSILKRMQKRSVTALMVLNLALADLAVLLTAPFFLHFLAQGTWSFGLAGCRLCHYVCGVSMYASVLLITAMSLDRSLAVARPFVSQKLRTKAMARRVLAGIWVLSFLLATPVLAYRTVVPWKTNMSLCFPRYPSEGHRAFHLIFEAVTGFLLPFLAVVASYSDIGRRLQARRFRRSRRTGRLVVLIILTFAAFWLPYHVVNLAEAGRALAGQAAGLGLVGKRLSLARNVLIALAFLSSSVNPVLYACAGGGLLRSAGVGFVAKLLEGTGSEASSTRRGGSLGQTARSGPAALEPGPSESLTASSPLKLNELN
T3 sequence (P41146 whole entry): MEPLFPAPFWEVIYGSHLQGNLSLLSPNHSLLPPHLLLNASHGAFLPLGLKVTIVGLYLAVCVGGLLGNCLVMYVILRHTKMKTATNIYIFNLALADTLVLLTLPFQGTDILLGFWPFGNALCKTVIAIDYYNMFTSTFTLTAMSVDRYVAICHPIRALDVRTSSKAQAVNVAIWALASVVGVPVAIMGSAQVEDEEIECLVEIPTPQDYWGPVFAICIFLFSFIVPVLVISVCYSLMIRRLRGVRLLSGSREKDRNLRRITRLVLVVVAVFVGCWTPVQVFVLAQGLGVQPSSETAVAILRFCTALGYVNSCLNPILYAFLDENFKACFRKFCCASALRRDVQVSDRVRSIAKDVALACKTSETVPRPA

SMILES	NanoBRET Fold Response ([1]; LTB4R, tracer 0.1μM)	NanoBRET Fold Response ([1]; LTB4R, tracer 1μM)	NanoBRET Fold Response ([2]; NTSR1, tracer 0.1μM)	NanoBRET Fold Response ([2]; NTSR1, tracer 1μM)	NanoBRET Fold Response ([3]; OPRL1, tracer 0.1μM)	NanoBRET Fold Response ([3]; OPRL1, tracer 1μM)	other results
O=C(CCOCCOCCOCCOCCNC(=O)CCc1ccc2n1[B-](F)(F)[N+]1=C(c3ccc[nH]3)C=CC1=C2)NCCCN1CCN(C2=Nc3ccccc3Oc3ccc(Cl)cc32)CC1 [Loxapine-a-2-NB590]	1.05	0.96	0.99	1.08	1.00	0.89	
CCCn1c(=O)c2[nH]c(-c3ccc(OCC(=O)NCCNC(=O)CCOCCNC(=O)c4ccc(CNC(=O)CCc5ccc6n5[B-](F)(F)[N+]5=C(c7ccc[nH]7)C=CC5=C6)cc4)cc3)nc2n(CCC)c1=O [XAC-3-NB590]	1.09	1.11	0.98	1.02	1.12	0.72	
CN(C)CCC=C1c2ccccc2CCc2ccc(C(=O)NCCNC(=O)CCOCCOCCOCCOCCNC(=O)CCc3ccc4n3[B-](F)(F)[N+]3=C(c5ccc[nH]5)C=CC3=C4)cc21 [Amitriptyline-a-2-NB590]							NanoBRET Fold Response ([1]; tracer at 0.1μM): 1.02; NanoBRET Fold Response ([1]; tracer at 1μM): 1.00; NanoBRET Fold Response ([2]; tracer at 0.1μM): 1.05; NanoBRET Fold Response ([2]; tracer at 1μM): 1.00; NanoBRET Fold Response ([3]; tracer at 0.1μM): 1.01; NanoBRET Fold Response ([3]; tracer at 1μM): 0.95
COc1ccccc1N1CCN(CCCCN2C(=O)c3ccc(CNC(=O)CCOCCOCCOCCOCCNC(=O)CCc4ccc5n4[B-](F)(F)[N+]4=C(c6ccc[nH]6)C=CC4=C5)cc3C2=O)CC1 [NAN-190-2-NB590]		0.96	0.97		0.97		
O=C(CCc1ccc2n1[B-](F)(F)[N+]1=C(c3ccc[nH]3)C=CC1=C2)NCc1ccc(C(=O)NCCOCCOCCNCC(O)COc2cccc3ccccc23)cc1 (centres unmarked) [Propranolol-3-NB590]							NanoBRET Fold Response ([1]; LTB4R, 0.1μM): 0.97; NanoBRET Fold Response ([1]; LTB4R, 1μM): 1.02; NanoBRET Fold Response ([2]; NTSR1, 0.1μM): 1.06; NanoBRET Fold Response ([2]; NTSR1, 1μM): 1.01; NanoBRET Fold Response ([3]; OPRL1, 0.1μM): 0.96; NanoBRET Fold Response ([3]; OPRL1, 1μM): 1.01
COc1ccccc1N1CCN(CCCCN2C(=O)c3ccc(CNC(=O)CCOCCNC(=O)c4ccc(CNC(=O)CCc5ccc6n5[B-](F)(F)[N+]5=C(c7ccc[nH]7)C=CC5=C6)cc4)cc3C2=O)CC1 [NAN-190-3-NB590]	1.02	1.09	0.90	0.99	1.08	1.41	
O=C(CCc1ccc2n1[B-](F)(F)[N+]1=C(c3ccc[nH]3)C=CC1=C2)NCc1ccc(C(=O)NCCOCCC(=O)N[C@@H]2CC[C@@]3(O)[C@H]4Cc5ccc(O)c6c5[C@@]3(CCN4CC3CC3)[C@H]2O6)cc1 [Naltrexone-3-NB590]	0.68	1.06	1.07	0.93	1.54	0.99	
CCOC(=O)c1cc(C#N)c(N2CCC(C(=O)NS(=O)(=O)Cc3ccccc3/C=C/C(=O)NCCNC(=O)CCc3ccc4n3[B-](F)(F)[N+]3=C(c5ccc[nH]5)C=CC3=C4)CC2)nc1C [AZD1283-1-NB590]							NanoBRET Fold Response ([1]; LTB4R, 0.1μM): 1.16; NanoBRET Fold Response ([1]; LTB4R, 1μM): 1.16; NanoBRET Fold Response ([2]; NTSR1, 0.1μM): 1.04; NanoBRET Fold Response ([2]; NTSR1, 1μM): 1.07; NanoBRET Fold Response ([3]; OPRL1, 0.1μM): 0.98; NanoBRET Fold Response ([3]; OPRL1, 1μM): 1.15
COc1ccc2[nH]c(-c3ccc(CNC(=O)CCOCCOCCOCCOCCNC(=O)CCc4ccc5n4[B-](F)(F)[N+]4=C(c6ccc[nH]6)C=CC4=C5)cc3)c(CCNC(C)=O)c2n1 [AzomelatoninICO9-2-NB590]							NanoBRET Fold Response ([1]; 0.1μM tracer): 1.07; NanoBRET Fold Response ([1]; 1μM tracer): 0.99; NanoBRET Fold Response ([2]; 0.1μM tracer): 0.90; NanoBRET Fold Response ([2]; 1μM tracer): 0.78; NanoBRET Fold Response ([3]; 0.1μM tracer): 0.71; NanoBRET Fold Response ([3]; 1μM tracer): 1.05
CC(C)N(CC[C@H](c1ccccc1)c1cc(CCNC(=O)CCOCCOCCOCCOCCNC(=O)CCc2ccc3n2[B-](F)(F)[N+]2=C(c4ccc[nH]4)C=CC2=C3)ccc1O)C(C)C [Tolterodine-2-NB590]	0.92	0.96	1.09	0.90	1.07	0.90	
CN1CCN(C2=Nc3cc(Cl)ccc3N(CC(=O)NCCOCCOCCOCCOCCNC(=O)CCc3ccc4n3[B-](F)(F)[N+]3=C(c5ccc[nH]5)C=CC3=C4)c3ccccc32)CC1 [Clozapine-c-2-NB590]							NanoBRET Fold Response ([1]; LTB4R, 0.1μM tracer): 1.05; NanoBRET Fold Response ([1]; LTB4R, 1μM tracer): 0.95; NanoBRET Fold Response ([2]; NTSR1, 0.1μM tracer): 1.02; NanoBRET Fold Response ([2]; NTSR1, 1μM tracer): 1.01; NanoBRET Fold Response ([3]; OPRL1, 0.1μM tracer): 0.98; NanoBRET Fold Response ([3]; OPRL1, 1μM tracer): 0.99
N#CN=C(NCCCOc1cccc(CN2CCCCC2)c1)NCCNC(=O)CCOCCOCCOCCOCCNC(=O)CCc1ccc2n1[B-](F)(F)[N+]1=C(c3ccc[nH]3)C=CC1=C2 [Aminopotentidine-2-NB590]	1.03	0.99	1.02	1.03	1.05	1.01	
COc1ccc2c(n1)c(CCNC(C)=O)cn2CCNC(=O)CCc1ccc2n1[B-](F)(F)[N+]1=C(c3ccc[nH]3)C=CC1=C2 [Azamelatonin-1-NB590]							NanoBRET Fold Response ([1]; 0.1μM tracer): 0.97; NanoBRET Fold Response ([1]; 1μM tracer): 0.97; NanoBRET Fold Response ([2]; 0.1μM tracer): 1.05; NanoBRET Fold Response ([2]; 1μM tracer): 0.99; NanoBRET Fold Response ([3]; 0.1μM tracer): 1.14; NanoBRET Fold Response ([3]; 1μM tracer): 1.14
CN(CCC=C1c2ccccc2CCc2ccccc21)C(=O)CCOCCOCCOCCOCCNC(=O)CCc1ccc2n1[B-](F)(F)[N+]1=C(c3ccc[nH]3)C=CC1=C2 [Amitriptyline-e-2-NB590]							NanoBRET Fold Response ([1]; tracer at 1μM): 1.03; NanoBRET Fold Response ([3]; tracer at 1μM): 1.10
CC(C)N(CC[C@H](c1ccccc1)c1cc(CCNC(=O)c2ccc(CNC(=O)CCc3ccc4n3[B-](F)(F)[N+]3=C(c5ccc[nH]5)C=CC3=C4)cc2)ccc1O)C(C)C [Tolterodine-BZ-NB590]	0.95	1.03	1.02	1.03	0.92	0.88	
